Biological target: Sodium-dependent dopamine transporter (Rattus norvegicus, UniProt P23977)
Assay: Concentration required to inhibit 50% of radioligand binding ([3H]WIN-35428) to the dopamine (DA) transporter in rat

Sodium-dependent dopamine transporter, sequence (P23977 whole entry): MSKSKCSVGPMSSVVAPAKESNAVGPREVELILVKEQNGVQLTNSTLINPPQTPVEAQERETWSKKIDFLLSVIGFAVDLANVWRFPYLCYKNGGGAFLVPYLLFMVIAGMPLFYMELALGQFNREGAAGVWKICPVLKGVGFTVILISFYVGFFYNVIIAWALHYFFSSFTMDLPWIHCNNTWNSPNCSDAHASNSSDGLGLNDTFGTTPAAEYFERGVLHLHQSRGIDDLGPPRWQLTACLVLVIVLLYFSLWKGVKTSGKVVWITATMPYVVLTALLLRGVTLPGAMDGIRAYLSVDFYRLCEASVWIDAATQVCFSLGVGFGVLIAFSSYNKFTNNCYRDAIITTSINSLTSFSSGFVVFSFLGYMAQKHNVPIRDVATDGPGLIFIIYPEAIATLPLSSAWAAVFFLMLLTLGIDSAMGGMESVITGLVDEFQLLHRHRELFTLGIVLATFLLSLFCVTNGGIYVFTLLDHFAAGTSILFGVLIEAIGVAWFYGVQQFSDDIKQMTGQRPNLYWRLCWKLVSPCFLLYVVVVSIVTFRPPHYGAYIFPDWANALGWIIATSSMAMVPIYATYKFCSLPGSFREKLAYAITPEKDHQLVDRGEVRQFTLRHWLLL

## COC(=O)C1C2CCC(C[C@@H]1c1cc[c]([Sn]([CH3])([CH3])[CH3])cc1)N2C (stereo partly drawn) [(3S,8R)-8-Methyl-3-(4-trimethylstannanyl-phenyl)-8-aza-bicyclo[3.2.1]octane-2-carboxylic acid methyl ester]
  IC50: 144 nM

— BindingDB's records for doi:10.1021/jm00044a007 (Research Triangle Institute, 1994)
